SMILES strings stand for the structures. Bounds are passed on as bounds.

Assay [1] concerns the target T1, MAGL (Mus musculus, UniProt O35678).
T1 construct: mouse brain membrane fraction or cell lysates for mouse assays; from tissue
T1 sequence (O35678 1-303): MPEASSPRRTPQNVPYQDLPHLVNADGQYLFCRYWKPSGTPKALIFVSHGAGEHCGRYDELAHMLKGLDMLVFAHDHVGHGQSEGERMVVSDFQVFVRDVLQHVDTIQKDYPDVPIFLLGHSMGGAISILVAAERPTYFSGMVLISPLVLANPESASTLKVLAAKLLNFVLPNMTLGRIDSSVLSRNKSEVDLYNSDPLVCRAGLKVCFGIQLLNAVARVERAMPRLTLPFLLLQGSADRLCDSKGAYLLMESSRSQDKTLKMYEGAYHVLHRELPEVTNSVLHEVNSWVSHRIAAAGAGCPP
The assay can be described thus: In vitro competitive activity-based protein profiling, mouse MAGL. It counts as biochemical. The note with it: for inhibition at 1 µM: read-out: MAGL % inh. 1 μM (mouse). On the procedure:
(§1) In Vitro Competitive Activity-Based Protein Profiling.
(§2) Proteomes (mouse brain membrane fraction or cell lysates for mouse assays; human prefrontal cortex or cell membrane fractions for human assays) (50 μL, 1.0 mg/mL total protein concentration) were preincubated with varying concentrations of inhibitors at 37° C. After 30 min, FP-Rh or HT-01 (1.0 μL, 50 μM in DMSO) was added and the mixture was incubated for another 30 min at 37° C. Reactions were quenched with SDS loading buffer (15 μL—4×) and run on SDS-PAGE. Following gel imaging, serine hydrolase activity was determined by measuring fluorescent intensity of gel bands corresponding to MAGL and FAAH using ImageJ 1.43u software.

Assay [2] concerns the target T2, FAAH (Mus musculus, UniProt O08914).
T2 construct: mouse brain membrane fraction or cell lysates for mouse assays; from tissue
T2 sequence (O08914 1-579): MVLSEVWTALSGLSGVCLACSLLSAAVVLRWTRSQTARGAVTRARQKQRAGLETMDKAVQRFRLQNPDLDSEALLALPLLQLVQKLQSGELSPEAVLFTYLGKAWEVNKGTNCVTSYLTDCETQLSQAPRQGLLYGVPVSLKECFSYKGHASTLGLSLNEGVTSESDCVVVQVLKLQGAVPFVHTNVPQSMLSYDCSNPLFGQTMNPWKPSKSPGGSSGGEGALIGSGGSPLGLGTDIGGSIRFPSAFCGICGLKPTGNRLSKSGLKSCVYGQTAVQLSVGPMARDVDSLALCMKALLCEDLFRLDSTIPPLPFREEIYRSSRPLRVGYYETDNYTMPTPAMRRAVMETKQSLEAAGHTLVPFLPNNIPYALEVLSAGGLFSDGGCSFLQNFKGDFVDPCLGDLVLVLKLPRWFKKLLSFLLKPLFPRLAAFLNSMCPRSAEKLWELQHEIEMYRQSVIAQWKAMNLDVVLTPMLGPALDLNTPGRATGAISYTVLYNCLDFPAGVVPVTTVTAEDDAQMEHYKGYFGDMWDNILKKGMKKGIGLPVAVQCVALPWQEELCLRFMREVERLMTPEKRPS
The assay can be described thus: In vitro competitive activity-based protein profiling, mouse FAAH. To be noted: for inhibition at 1 µM: read-out: FAAH % inh. 1 μM (mouse). It is filed as biochemical. How it is done:
as §1, §2

As for `NC(=O)c1cnn(C(=O)N2CCC3(CCN(Cc4ccc(Cl)cc4)C3)C2)c1` (stereo not shown) [Example 37, 1-(7-(4-chlorobenzyl)-2,7-diazaspiro[4.4]nonane-2-carbonyl)-1H-pyrazole-4-carboxamide], the figures for the IC50 in assay [1] and in assay [2] were 1000 to 10000 nM and at most 100 nM, respectively. Moreover, the inhibition at 1 µM in assay [1] was 50 to 75%; in assay [2] (1 μM), at least 75%.

For the compound `CNC(=O)c1cnn(C(=O)N2CCC3(CCN(Cc4ccc(Cl)cc4)C3)C2)c1` (stereo not shown) [Example 38, 1-(7-(4-chlorobenzyl)-2,7-diazaspiro[4.4]nonane-2-carbonyl)-N-methyl-1H-pyrazole-4-carboxamide], the IC50 in assay [1] was 1000 to 10000 nM; in assay [2] it was 100 to 1000 nM. Moreover, the inhibition at 1 µM is 0 to 25% in assay [1] and at least 75% in assay [2] (1 μM).

In the case of `CNC(=O)c1cnn(C(=O)N2CCC3(CCN(Cc4cc(Cl)ccc4Cl)C3)C2)c1` (stereo not shown) [Example 40, 1-(7-(2,5-dichlorobenzyl)-2,7-diazaspiro[4.4]nonane-2-carbonyl)-N-methyl-1H-pyrazole-4-carboxamide], the inhibition at 1 µM in assay [1] and in assay [2] (1 μM) was at least 75% throughout.

For the compound `CNC(=O)c1cnn(C(=O)N2CCC3(CCN(Cc4cccc(C(F)(F)F)c4)C3)C2)c1` (stereo not shown) [Example 42, N-methyl-1-(7-(3-(trifluoromethyl)benzyl)-2,7-diazaspiro[4.4]nonane-2-carbonyl)-1H-pyrazole-4-carboxamide], the inhibition at 1 µM in assay [1] was 0 to 25%; in assay [2] (1 μM), at least 75%. The inhibition at 10 µM was 100% in assay [1] (10 μM, read-out: MAGL % inh. at 10 μM (mouse)) and 100% in assay [2] (10 μM, read-out: FAAH % inh. at 10 μM (mouse)).

On to `CNC(=O)c1cnn(C(=O)N2CCC3(CCN(Cc4cc(Cl)cc(C(F)(F)F)c4)C3)C2)c1` (stereo not shown) [Example 44, 1-(7-(3-chloro-5-(trifluoromethyl)benzyl)-2,7-diazaspiro[4.4]nonane-2-carbonyl)-N-methyl-1H-pyrazole-4-carboxamide], for which the inhibition at 1 µM in assay [1] and in assay [2] (1 μM) was at least 75% in each case.

`CNC(=O)c1cnn(C(=O)N2CCC3(CCN(Cc4ccc(N5CCOCC5)cc4C(F)(F)F)C3)C2)c1` (stereo not shown) [Example 49, N-methyl-1-(7-(4-morpholino-2-(trifluoromethyl)benzyl)-2,7-diazaspiro[4.4]nonane-2-carbonyl)-1H-pyrazole-4-carboxamide]: the inhibition at 1 µM in assay [1] and in assay [2] (1 μM) was at least 75% in each case.

Regarding `O=C(c1cnn(C(=O)N2CCC3(CCN(Cc4ccc(N5CCOCC5)cc4C(F)(F)F)C3)C2)c1)N1CCOCC1` (stereo not shown) [Example 51, (4-(morpholine-4-carbonyl)-1H-pyrazol-1-yl)(7-(4-morpholino-2-(trifluoromethyl)benzyl)-2,7-diazaspiro[4.4]nonan-2-yl)methanone], the inhibition at 1 µM in assay [1] is 25 to 50%; in assay [2] (1 μM), at least 75%.

As to `O=C(c1cnn(C(=O)N2CCC3(CCN(Cc4ccc(N5CCOCC5)cc4C(F)(F)F)C3)C2)c1)N1CCN(C2CC2)CC1` (stereo not shown) [Example 52, (4-cyclopropylpiperazin-1-yl)(1-(7-(4-morpholino-2-(trifluoromethyl)benzyl)-2,7-diazaspiro[4.4]nonane-2-carbonyl)-1H-pyrazol-4-yl)methanone], the inhibition at 1 µM in assay [1] and in assay [2] (1 μM) was at least 75% each time.

Turning to `CN(Cc1ccc(C(F)(F)F)cc1)[C@@H]1C[C@@H]2CN(C(=O)n3cc(C(=O)N4CCOCC4)cn3)C[C@@H]2C1` [Example 53, (cis-5-(methyl(4-(trifluoromethyl)benzyl)amino)hexahydrocyclopenta[c]pyrrol-2(1H)-yl)(4-(morpholine-4-carbonyl)-1H-pyrazol-1-yl)methanone], the figures for the inhibition at 1 µM in assay [1] and in assay [2] (1 μM) were 25 to 50% and at least 75%, respectively.

As for `CNC(=O)c1cnn(C(=O)N2C[C@H]3C[C@@H](N(C)Cc4ccccc4Cl)C[C@H]3C2)c1` [Example 56, 1-(trans-5-((2-chlorobenzyl)(methyl)amino)octahydrocyclopenta[c]pyrrole-2-carbonyl)-N-methyl-1H-pyrazole-4-carboxamide], the “MAGL % inh. 1 μM (mouse)” value in assay [1] was “C (% inhibition greater than or equal to 25% and less than 50%)”. In assay [2] (1 μM), the inhibition at 1 µM was at least 75%.

Take `CN(Cc1ccccc1Cl)[C@@H]1C[C@@H]2CN(C(=O)n3cc(C(=O)N4CCCC4)cn3)C[C@@H]2C1` [Example 57, (trans-5-((2-chlorobenzyl)(methyl)amino)hexahydrocyclopenta[c]pyrrol-2(1H)-yl)(4-(pyrrolidine-1-carbonyl)-1H-pyrazol-1-yl)methanone]: the “MAGL % inh. 1 μM (mouse)” value in assay [1] was “B (% inhibition greater than or equal to 50% and less than 75%)”. In assay [2] (1 μM), the “FAAH % inh. 1 μM (mouse)” value was “A (% inhibition greater than or equal to 75%)”.

As for `CN(Cc1ccccc1Cl)[C@@H]1C[C@@H]2CN(C(=O)n3cc(Cl)cn3)C[C@@H]2C1` [Example 58, (4-chloro-1H-pyrazol-1-yl)(cis-5-((2-chlorobenzyl)(methyl)amino)hexahydrocyclopenta[c]pyrrol-2(1H)-yl)methanone], the results for the IC50 in assay [1] and in assay [2] were 100 to 1000 nM and at most 100 nM, respectively. Also, the inhibition at 1 µM in assay [1] and in assay [2] (1 μM) was at least 75% in each case.

With `CC(=O)N(Cc1cccc(Cl)c1)[C@@H]1C[C@@H]2CN(C(=O)n3cc(Cl)cn3)C[C@@H]2C1` [Example 60, N-(cis-2-(4-chloro-1H-pyrazole-1-carbonyl)octahydrocyclopenta[c]pyrrol-5-yl)-N-(3-chlorobenzyl)acetamide], the IC50 in assay [1] and in assay [2] was at most 100 nM in each case. For the same compound, the inhibition at 1 µM in assay [1] and in assay [2] (1 μM) was at least 75% each time.

In the case of `O=C(N1C[C@H]2C[C@@H](NCc3ccccc3Cl)C[C@H]2C1)n1cc(Cl)cn1` [Example 61, (4-chloro-1H-pyrazol-1-yl)(cis-5-((2-chlorobenzyl)amino)hexahydrocyclopenta[c]pyrrol-2(1H)-yl)methanone], the IC50 in assay [1] and in assay [2] was 100 to 1000 nM throughout. Further, the inhibition at 1 µM in assay [1] and in assay [2] (1 μM) was at least 75% throughout.

Take `CC(=O)N(Cc1ccccc1Cl)[C@@H]1C[C@@H]2CN(C(=O)n3cc(Cl)cn3)C[C@@H]2C1` [Example 62, N-(cis-2-(4-chloro-1H-pyrazole-1-carbonyl)octahydrocyclopenta[c]pyrrol-5-yl)-N-(2-chlorobenzyl)acetamide]: the IC50 in assay [1] and in assay [2] was 100 to 1000 nM in each case. For the same compound, the inhibition at 1 µM in assay [1] and in assay [2] (1 μM) was at least 75% throughout.

As for `CC(=O)N(Cc1ccccc1Cl)[C@H]1C[C@@H]2CN(C(=O)n3cc(Cl)cn3)C[C@@H]2C1` [Example 63, N-(trans-2-(4-chloro-1H-pyrazole-1-carbonyl)octahydrocyclopenta[c]pyrrol-5-yl)-N-(2-chlorobenzyl)acetamide], the results for the inhibition at 1 µM in assay [1] and in assay [2] (1 μM) were at least 75% and 25 to 50%, respectively.

Regarding `O=C(N1C[C@H]2C[C@H](NCc3ccccc3Cl)C[C@H]2C1)n1cc(Cl)cn1` [Example 64, (4-chloro-1H-pyrazol-1-yl)(trans-5-((2-chlorobenzyl)amino)hexahydrocyclopenta[c]pyrrol-2(1H)-yl)methanone], the IC50 in assay [1] and in assay [2] was at most 100 nM each time. The inhibition at 1 µM in assay [1] and in assay [2] (1 μM) was at least 75% throughout.

On to `CN(Cc1cccc(Cl)c1)[C@@H]1C[C@@H]2CN(C(=O)n3cc(Cl)cn3)C[C@@H]2C1` [Example 65, (4-chloro-1H-pyrazol-1-yl)(cis-5-((3-chlorobenzyl)(methyl)amino)hexahydrocyclopenta[c]pyrrol-2(1H)-yl)methanone], for which the IC50 in assay [1] and in assay [2] was at most 100 nM each time. For the same compound, the inhibition at 1 µM in assay [1] and in assay [2] (1 μM) was at least 75% throughout.

For `O=C(N1C[C@H]2C[C@@H](NCc3cccc(Cl)c3)C[C@H]2C1)n1cc(Cl)cn1` [Example 66, (4-chloro-1H-pyrazol-1-yl)(cis-5-((3-chlorobenzyl)amino)hexahydrocyclopenta[c]pyrrol-2(1H)-yl)methanone], the IC50 in assay [1] is 100 to 1000 nM; in assay [2] it was at most 100 nM. The inhibition at 1 µM in assay [1] and in assay [2] (1 μM) was at least 75% in each case.

The values are drawn from patent US10385057B2, “Pyrazole compounds and methods of making and using same” (Lundbeck La Jolla Research Center, Inc., priority 2015, dated 2019).
